pIC50: −log10 of the molar value.
How the values were obtained:
[1] = molecular target: Voltage-gated inwardly rectifying potassium channel KCNH2 (Homo sapiens, UniProt Q12809); assay: Inhibition of human ERG
[2] = Apparent permeability from apical to basolateral side in human Caco2 cells at 10 uM by lucifer yellow flux assay; type: ADME, cell-based; settings: Caco-2
[3] = Half life in human hepatocytes at 1 uM by LC/MS analysis; type: ADME, cell-based, Hepatocyte
[4] = Fraction unbound in mouse plasma at 1 uM after 5 hrs by rapid equilibrium dialysis based LC-MS/MS analysis; type: ADME, cell-free
Cytochrome P450 2C8 = molecular target: T1, Cytochrome P450 2C8 (Homo sapiens, UniProt P10632); assay: Inhibition of CYP2C8 in human liver microsomes after 5 mins in presence of NADPH by LC-MS/MS analysis; type: ADME
T1 sequence (P10632 whole entry): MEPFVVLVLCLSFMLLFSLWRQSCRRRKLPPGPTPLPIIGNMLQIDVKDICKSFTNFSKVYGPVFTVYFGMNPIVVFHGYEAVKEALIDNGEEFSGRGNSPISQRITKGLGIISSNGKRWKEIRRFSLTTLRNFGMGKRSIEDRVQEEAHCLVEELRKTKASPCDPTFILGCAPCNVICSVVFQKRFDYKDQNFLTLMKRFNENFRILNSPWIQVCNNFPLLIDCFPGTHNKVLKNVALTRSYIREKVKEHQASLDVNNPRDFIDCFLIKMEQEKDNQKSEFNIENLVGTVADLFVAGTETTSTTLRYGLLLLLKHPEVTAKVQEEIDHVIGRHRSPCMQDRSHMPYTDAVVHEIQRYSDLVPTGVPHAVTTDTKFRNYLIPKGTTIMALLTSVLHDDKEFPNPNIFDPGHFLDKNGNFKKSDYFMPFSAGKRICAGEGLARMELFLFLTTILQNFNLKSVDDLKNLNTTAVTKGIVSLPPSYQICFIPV

[5] = Cmax in CD-1 mouse plasma at 5 mg/kg administered via oral gavage measured 24 hrs post dose by LC/MS/MS analysis; type: ADME, organism-based; design: dose 5 mg/kg, route oral
[6] = Half life in CD-1 mouse plasma at 1 mg/kg, iv by LC/MS/MS analysis; type: ADME, organism-based
[7] = AUC (0 to infinity) in Sprague-Dawley rat plasma at 5 mg/kg administered via oral gavage measured 24 hrs post dose by LC/MS/MS analysis; type: ADME, organism-based; design: dose 5 mg/kg, time infinity, route oral
[8] = Volume of distribution at steady state in Sprague-Dawley rat plasma at 1 mg/kg, iv measured 24 hrs post dose by LC/MS/MS analysis; type: ADME, organism-based; settings: read-out: Vdss
[9] = Oral bioavailability in Sprague-Dawley rat plasma at 5 mg/kg measured 24 hrs post dose by LC/MS/MS analysis; type: ADME, organism-based
[10] = Oral bioavailability in Beagle dog plasma at […] measured 24 hrs post dose by LC/MS/MS analysis; type: ADME, organism-based, Canis lupus familiaris
[11] = AUC (0 to infinity) in cynomolgus monkey plasma at […] administered via oral gavage measured 24 hrs post dose by LC/MS/MS analysis; type: ADME, organism-based, Macaca fascicularis; design: dose 2.5 mg/kg, route oral, time infinity
[12] = Clearance in cynomolgus monkey plasma at 0.5 mg/kg, iv measured 24 hrs post dose by LC/MS/MS analysis; type: ADME, organism-based, Macaca fascicularis

Voltage-gated inwardly rectifying potassium channel KCNH2, sequence (Q12809 whole entry): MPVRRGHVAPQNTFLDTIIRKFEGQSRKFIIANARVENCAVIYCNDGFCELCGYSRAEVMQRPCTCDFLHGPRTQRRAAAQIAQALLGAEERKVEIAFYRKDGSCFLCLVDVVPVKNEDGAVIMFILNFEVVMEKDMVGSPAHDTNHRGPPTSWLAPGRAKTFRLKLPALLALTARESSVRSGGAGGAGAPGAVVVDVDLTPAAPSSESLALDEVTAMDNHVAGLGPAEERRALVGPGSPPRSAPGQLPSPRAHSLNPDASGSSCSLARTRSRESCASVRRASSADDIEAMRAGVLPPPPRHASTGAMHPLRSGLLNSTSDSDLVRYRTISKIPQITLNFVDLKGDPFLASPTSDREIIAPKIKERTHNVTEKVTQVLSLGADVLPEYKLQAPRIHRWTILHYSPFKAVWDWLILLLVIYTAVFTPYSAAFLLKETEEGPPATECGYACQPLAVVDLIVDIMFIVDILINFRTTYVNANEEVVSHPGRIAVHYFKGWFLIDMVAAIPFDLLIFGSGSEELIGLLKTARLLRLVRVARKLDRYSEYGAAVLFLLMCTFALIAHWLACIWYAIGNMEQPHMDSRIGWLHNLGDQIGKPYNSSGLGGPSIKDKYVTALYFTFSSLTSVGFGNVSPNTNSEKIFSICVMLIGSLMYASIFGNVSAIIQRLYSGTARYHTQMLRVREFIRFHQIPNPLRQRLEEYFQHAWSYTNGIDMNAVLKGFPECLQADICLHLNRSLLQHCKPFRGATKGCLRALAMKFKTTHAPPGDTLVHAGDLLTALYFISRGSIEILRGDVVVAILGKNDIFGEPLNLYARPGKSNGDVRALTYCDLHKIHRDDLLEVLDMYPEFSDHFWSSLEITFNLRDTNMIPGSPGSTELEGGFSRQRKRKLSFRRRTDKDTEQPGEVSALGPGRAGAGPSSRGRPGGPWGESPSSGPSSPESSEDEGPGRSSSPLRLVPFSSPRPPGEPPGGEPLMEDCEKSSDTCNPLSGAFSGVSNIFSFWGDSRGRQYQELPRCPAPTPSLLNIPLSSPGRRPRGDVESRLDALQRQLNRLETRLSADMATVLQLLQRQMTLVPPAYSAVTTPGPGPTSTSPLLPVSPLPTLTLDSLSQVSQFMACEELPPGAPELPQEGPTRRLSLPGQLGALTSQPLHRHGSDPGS

- Papp A→B at 10 µM [2]: 13 ×10⁻⁶ cm/s
- half-life at 1 µM [3]: > 6 h
- fraction unbound at 5 h, 1 µM [4]: 0.022
- pIC50 (Cytochrome P450 2C8): < 4.70
- Cmax [5]: 3.6 µM
- half-life [6]: 3.2 h
- AUC(0-inf) [7]: 8050 ng·h/mL
- Vd [8]: 1.2 L/kg
- bioavailability [9]: 57%
- bioavailability at 24 h [10]: 65%
- AUC(0-inf) at 24 h [11]: 4030 ng·h/mL
- clearance [12]: 4.3 mL/min/kg
SMILES: C[C@H](NC(=O)c1c(N)nn2cccnc12)c1cc2cccc(C#Cc3cnn(C)c3)c2c(=O)n1-c1ccccc1 [EGANELISIB]
- pIC50 [1]: < 5.00
